# pEC50, pIC50: −log10 of the molar value.
# Assays:
# [1] = system: Cryptosporidium parvum; experiment: Cytopathic effect (CPE) based assay, C. parvum infected HCT-8 cells; conditions: HCT-8 host cell viability (CellTiter-Glo), 48 hours treatment, read-out: Cp CPE EC50
# Outline: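 HCT-8 cells were batch-infected with excysted C. parvum (Iowa isolate) oocysts at MOI 1:2 (host:parasite) for 3 h at 37 °C, then seeded and incubated 24 h before compound addition. Compounds were given as 3-fold dilution series (final DMSO <0.5%). Host-cell loss (cytopathic effect) was read as viability with CellTiter-Glo.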
# [2] = system: C. parvum; experiment: High content imaging assay, C. parvum infected HCT-8 cells; format: cell-based; conditions: Cryptosporidium parvum, percentage of infected HCT-8 cells, 48 hours treatment, read-out: Cp HCl IC50
# Method: (§1) Human ileocecal colorectal adenocarcinoma cells (HCT-8 [HRT-18] ATCC, CCL-34) were maintained in T-175 flasks (Corning, 431080) in complete growth medium (RPMI-1640 medium (Gibco, 11875) supplemented with 10% heat-inactivated horse serum (Gibco, 26050), 1×MEM non-essential amino acids (Gibco, 11140), 10 mM HEPES (Gibco, 15630), 100 units/mL penicillin, and 100 units/mL streptomycin) at 37° C. and 5% CO2 in a humidified incubator. Cultures were passaged twice weekly using 10 mL of 1×Phosphate-Buffered Saline (PBS) without Ca^2+ and Mg^2+ (Gibco, 20012) for washing and 3-5 mL per T-175 flask of TrypLE Express Enzyme (Gibco, 12604) for dissociation of adherent cells.
# Cryptosporidium parvum oocysts purchased from the Sterling Laboratory, University of Arizona (Iowa isolate) were purified from infected calf feces using discontinuous sucrose and cesium chloride centrifugation gradients and stored in PBS solution containing 0.01% Tween 20, 100 units/mL penicillin and 100 units/mL gentamicin.
# (§2) Excystation and infection protocols were developed following established methods with some modifications (Gut & Nelson, 1999, Upton et aL, 1995, Bessoff et aL, 2013). Briefly, oocysts were primed in 1 mL of 10 mM hydrochloric acid in 1× Hank's Balanced Salt Solution (HBSS) (Gibco, 14025) for 10 minutes with agitation at 1000 rpm, 37° C. on an Eppendorf thermomixer, then washed twice with 1 mL of room temperature non-acidic 1× HBSS by centrifugation at 13,000 rpm for 3 minutes at 25° C. Primed oocysts were further excysted at a concentration of 1×10^6 oocysts/μL in parasite infection medium consisting of a pre-warmed and pre-gassed 1:1 formulation of Leibovitz's L-15 medium (Gibco, 11415) and UltraCULTURE medium (Lonza, 12-725F) supplemented with 2 mM sodium taurocholate (Sigma, 86339-1), 10% heat-inactivated horse serum, and 200 μM L-ascorbic acid (Sigma, 95210) at 25° C. for 10 minutes. HCT-8 monolayer cells were infected with excysted cryptosporidium at a specified multiplicity of infection (MOI). All dilutions for subsequent assays were performed in parasite infection medium without sodium taurocholate. Pre-excysted oocysts were enumerated microscopically using a C-Chip disposable hemocytometer (NanoEnTek, DHC-N01).
# (§3) Compound powders were dissolved in neat DMSO (Fisher, D4121) to 10 mM and stored at 4° C. prior to dilution into source plates. Dilutions were carried out using a Microlab STAR liquid handler (Hamilton) to obtain compound source plates containing the ten-point or eight-point three fold dilutions starting from 10 mM in duplicates. Source plates were stored at 4° C. prior to spotting into assay plates. Before administration, all compound source plates were equilibrated to room temperature. A specified volume of compounds from source plate were spotted to assay plate using an Echo Acoustic liquid handler (LABCYTE, 550) so that the final DMSO concentration was less than 0.5%. Each assay plate a specified number of DMSO-treated negative control wells and a well-studied potent active compound at 100 nM as positive control. As a quality control, all positive and negative-control wells were used to calculate a Z′-value and signal to noise ratio (S:N) for each plate.
# Imaging assays were developed following established Cryptosporidium spp labeling and in vitro infection models with some modifications (Bessoff et aL, 2013, Gut & Nelson, 1999). Briefly, 2×10^4 HCT-8 cells per well were seeded into 384-well, flat black clear-bottom OPERA assay plates (Greiner, 789071-G) at 20 μL per well in complete growth medium using a Multidrop Combi liquid handler (ThermoScientific, 5840300) and standard tube dispensing cassette (ThermoScientific, 24072670) and incubated for 24 hours at 37° C. The HCT-8 cells were infected with 10 μL per well of 1×10^4 excysted C. parvum oocysts (host to parasite MOI of 1:0.5) or 10 μL per well of 4×10^4 excysted C. hominis oocysts (MOI 1:2) in parasite infection medium using the Multidrop and incubated at 37° C. […]
# [3] = Cytotoxicity against HepG2; format: cell-based; conditions: human, HepG2 cells (ATCC HB-8065), 5 days exposure
# Outline: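 Cells seeded at 10^5 per well, held 24 h at 37 °C, then exposed to two-fold serial dilutions of compound for 5 days. Viability read with Cell Proliferation Kit II (XTT); values reported as CC50.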
# [4] = system: Cryptosporidium hominis; experiment: Cytopathic effect (CPE) based assay, C. hominis infected HCT-8 cells; conditions: HCT-8 host cell viability (CellTiter-Glo), 48 hours treatment, read-out: Ch CPE EC50
# Method: as §1
# Cryptosporidium hominis oocysts were purchased from the Tufts University Cummings School of Veterinary Medicine (courtesy of Dr. Saul Tzipori). C. hominis oocysts were purified from infected gnotobiotic piglet feces and stored in PBS solution containing 0.01% Tween-20, 100 units/mL penicillin and 100 units/mL gentamicin. C. parvum and C. hominis oocysts less than three months old from the date of shedding were used in infection experiments.
# as §2, §3
# Cryptosporidium spp are obligate-intracellular parasites that infect intestinal epithelial cells and the host cell is killed upon parasite egress. […] The loss of epithelial cells is due to both rapid parasite invasion/multiplication/egress and also pro-inflammatory immune response (Adams et al., 1994, Griffiths et al., 1994). We have observed a consistent cytopathic effect (CPE) in HCT-8 cells with C. spp infection the loss of viability of the host cells using CellTiter-Glo reagent.
# Confluent HCT-8 cells in T-175 flasks were directly infected with excysted oocysts at an MOI (host to parasite) of 1:2 for C. parvum and 1:4 for C. hominis. […]
Structure (SMILES),pEC50 [1],pIC50 [2],CC50 at 5 days [3],pEC50 [4]
CCN(C(=O)c1ccn2ncc(-c3ccc(C(=O)NC)nc3)c2c1)c1ccc(C#N)cn1 [Example 150],5.97,6.42,9820 nM,–
CNC(=O)c1ccc(-c2cnn3ccc(C(=O)N(NC)c4ccc(C#N)cc4)cc23)cn1 [Example 92],6.51,7.03,8520 nM,–
N#Cc1ccc(N(C(=O)c2ccn3ncc(-c4ccc(C(=O)NC5COC5)cc4)c3c2)C2CC2)nc1 [Example 131],5.56,–,> 50000 nM,5.39
CCNC(=O)c1ccc(-c2cnn3ccc(C(=O)N(c4ccc(C#N)cn4)C4CC4)cc23)cc1 [Example 127],6.99,7.21,40200 nM,7.15
CCN(C(=O)c1ccn2ncc(-c3ccc(C(=O)NC)cc3)c2c1)c1ccc(C#N)cn1 [Example 90],7.17,7.28,14800 nM,–
CNC(=O)c1ccc(-c2cnn3ccc(N(C)C(=O)c4ccc(C#N)cn4)cc23)cc1 [Example 94],6.43,6.91,31200 nM,6.34
CC(C)NC(=O)c1ccc(-c2cnn3ccc(C(=O)N(c4ccc(C#N)cn4)C4CC4)cc23)cc1 [Example 121],5.06,–,33200 nM,< 4.70
CCN(C(=O)c1ccn2ncc(-c3ccc(C(=O)NC)cc3)c2c1)c1ccc(C(F)(F)F)cn1 [Example 96],7.30,7.62,7140 nM,–
N#Cc1ccc(N(C(=O)c2ccn3ncc(-c4ccc(C(N)=O)cc4)c3c2)C2CC2)nc1 [Example 120],6.76,–,23700 nM,6.56
CNC(=O)c1ccc(-c2cnn3ccc(C(=O)N(c4ccc(C(F)(F)F)cn4)C(C)C)cc23)cc1 [Example 153],7.41,7.96,20600 nM,7.15
CNC(=O)c1ccc(-c2cnn3ccc(C(=O)N(c4ccc(C#N)cn4)C(C)C)cc23)cc1 [Example 91],6.89,–,18700 nM,6.86
CNC(=O)c1ccc(-c2cnn3ccc(C(=O)N(c4ccc(C#N)cn4)C4CCC4)cc23)cc1 [Example 112],6.57,–,5020 nM,6.45
N#Cc1ccc(N(C(=O)c2ccn3ncc(-c4ccc(C(=O)NC5CC5)cc4)c3c2)C2CC2)nc1 [Example 123],5.52,–,17200 nM,5.50
CNC(=O)c1ccc(-c2cnn3ccc(C(=O)N(c4ccc(C(F)(F)F)cn4)C4CCC4)cc23)cc1 [Example 160],7.07,7.54,2090 nM,–
CNC(=O)c1ccc(-c2cnn3ccc(C(=O)N(c4ccc(C#N)c(OC)n4)C4CC4)cc23)cc1 [Example 149],7.26,7.49,23300 nM,–
CNC(=O)c1ccc(-c2cnn3ccc(C(=O)N(c4ccc(Cl)cn4)C4CC4)cc23)cc1 [Example 124],6.99,7.22,21000 nM,–

# — patent US20190030009A1, “COMPOUNDS AND COMPOSITIONS FOR THE TREATMENT OF CRYPTOSPORIDIOSIS” (Novartis AG, priority 2016, published 2019)
